Measurements as given in patent US8895752B2, “Alkylsulfonyl-substituted thiazolide compounds” (priority 2007, dated 2014).
Read-outs that look alike come from different tables or passages of the source.

Experiments:
[1] = Primary HCV replicon cell assay, cytotoxicity; conditions: human, HCV replicon cells (primary assay), CC50, primary assay
Experimental: (§1) Antiviral activity of test compounds was assessed in a 3-day assay using the stably-expressing HCV replicon cell line, AVA5 (sub-genomic CON1, genotype 1b) (Blight et al., 2000) maintained as sub-confluent cultures on 96-well plates as previously described (Okuse et al., 2005). Antiviral activity was determined by blot hybridization analysis of intracellular HCV RNA (normalized to the level of cellular B-actin RNA in each culture sample) and cytotoxicity was assessed by neutral red dye uptake after 3 days of treatment. Additional studies were performed using Huh7 cells containing another HCV replicon, H/FL-Neo, a genotype 1a full length construct (Blight et al., 2003). For studies involving human serum, standard culture medium (which contains 10% fetal bovine serum) and assay conditions were maintained.
(§2) EC50, EC90 and CC50 values (±standard deviations [S.D.]) were calculated by linear regression analysis using data combined from all treated cultures (Korba and Gerin, 1992; Okuse et al., 2005). […] Selectivity index (S.I.) was calculated as CC50/EC90 for HBV assays and CC50/EC50 for HCV assays. EC90 values were used for calculation of the S.I. in HBV assays since at least a […] depression of HBV DNA levels is typically required to achieve statistical significance in this assay system (Korba and Gerin, 1992). For combination treatments, EC50, EC90, CC50 and S.I. are presented for the first compound listed. The molar ratio of the compounds in each combination is also indicated.

[2] = tested on: HCV replicon; assay: Primary HCV replicon cell assay; type: cell-based, Hepatitis C Virus
Experimental: as §1, §2

[3] = tested on: HBV; assay: HBV antiviral assay in confluent 2.2.15 cell cultures (HBV DNA, quantitative blot hybridization); type: cell-based, Hepatitis B Virus
Experimental: EC50, EC90 and CC50 values (±standard deviations [S.D.]) were calculated by linear regression analysis using data combined from all treated cultures (Korba and Gerin, 1992; Okuse et al., 2005). […] Selectivity index (S.I.) was calculated as CC50/EC90 for HBV assays and CC50/EC50 for HCV assays. EC90 values were used for calculation of the S.I. in HBV assays since at least a 3-fold depression of HBV DNA levels is typically required to achieve statistical significance in this assay system (Korba and Gerin, 1992).

[4] = tested on: Wild-type HBV; assay: 5-day transient transfection assay in Huh7 cells, intracellular HBV RI by Southern blot; type: cell-based, Hepatitis B Virus; conditions: Wild-type, Huh7 transient transfection; for EC50: read-out: EC50
[5] = tested on: HBV Mutant M204I; assay: as above; type: cell-based, Hepatitis B Virus
Experimental: (§3) Activity against LMV-resistant (Allen et al., 1998) and ADV-resistant (Angus et al., 2003) HBV mutants was performed in a 5-day assay using a transient transfection method as previously described (Iyer et al., 2004). Antiviral activity was determined by quantitative Southern blot hybridization of intracellular HBV DNA replication intermediates (HBV RI).

[6] = tested on: HBV Mutant M204V; assay: as above; type: cell-based, Hepatitis B Virus
Experimental: as §3

[7] = tested on: HBV Mutant N236T; assay: as above; type: cell-based, Hepatitis B Virus
Experimental: as §3

[8] = tested on: HBV Mutant L180M; assay: as above; type: cell-based, Hepatitis B Virus
Experimental: as §3

[9] = tested on: HBV Mutant L180M/M204V; assay: as above; type: cell-based, Hepatitis B Virus
Experimental: as §3

[10] = Cytotoxicity by neutral red dye uptake in 2.2.15 cells; conditions: human
Experimental: (§4) HBV antiviral assays were conducted as previous described (Korba and Gerin, 1992).
as §2

[11] = tested on: AVA5 cells; assay: Cytotoxicity by neutral red dye uptake in AVA5 cells; type: cell-based; conditions: Genotype 1b replicon, 3 days
[12] = tested on: HCV replicon, sub-genomic CON1, genotype 1b; assay: 3-day HCV replicon assay in AVA5 cells (intracellular HCV RNA, blot hybridization); type: cell-based, Hepatitis C Virus; conditions: Genotype 1b replicon, 3 days; first compound listed for combinations
Experimental: as §1, §2

[13] = tested on: 2.2.15 cells; assay: Cytotoxicity by neutral red dye uptake in 2.2.15 cells; conditions: confluent 2.2.15 cultures, nine daily doses, neutral red uptake
Experimental: as §4, §2

[14] = tested on: LMV-resistant and ADV-resistant HBV mutants; assay: Activity against drug-resistant HBV mutants, transient transfection in Huh7 cells (overall statement); type: cell-based, Hepatitis B Virus; conditions: all drug-resistant viruses tested
Experimental: as §3

[15] = 2.2.15 cells, nine daily doses, read-out: Extracellular virion DNA EC50
[16] = 2.2.15 cells, nine daily doses, read-out: Extracellular virion DNA EC90
[17] = 2.2.15 cells, nine daily doses, read-out: Intracellular HBV RI EC50
[18] = 2.2.15 cells, nine daily doses, read-out: Intracellular HBV RI EC90

SMILES: CC(=O)Oc1ccccc1C(=O)Nc1ncc(S(C)(=O)=O)s1 [Compound 7, 2-(5-(methylsulfonyl)thiazol-2-ylcarbamoyl)phenyl acetate]
- CC50 at 3 days [1]: 20 µM
- EC50 ([2]; Hepatitis C virus): > 10 µM
- EC90 ([2]; Hepatitis C virus): > 10 µM

SMILES: CS(=O)(=O)Oc1ccccc1C(=O)Nc1nccs1 [Compound 11, 2-(thiazol-2-ylcarbamoyl)phenyl methanesulfonate]
- CC50 at 3 days [1]: > 100 µM
- melting point: 185.5 to 187.8 °C
- EC50 ([2]; Hepatitis C virus): > 10 µM
- EC90 ([2]; Hepatitis C virus): > 10 µM

SMILES: CS(=O)(=O)c1csc(NC(=O)c2ccccc2O)n1 [Compound 60, 2-hydroxy-N-(4-(methylsulfonyl)thiazol-2-yl)benzamide]
- EC90 [2]: 0.654 µM
- EC90 ([2]; Hepatitis C virus): 0.585 µM

SMILES: CC(=O)Oc1ccccc1C(=O)Nc1nc(S(C)(=O)=O)cs1 [Compound 62, 2-{[4-(methylsulfonyl)-1,3-thiazol-2-yl]carbamoyl}phenyl acetate]
- CC50 at 3 days [1]: > 100 µM
- EC50 ([2]; Hepatitis C virus): > 10 µM
- EC90 ([2]; Hepatitis C virus): > 10 µM

SMILES: Nc1ccn([C@@H]2CS[C@H](CO)O2)c(=O)n1 [LMV, lamivudine]
- Selectivity Index Virion ([3]; CC50/EC90, extracellular virion DNA): 15646
- Selectivity Index RI ([3]; CC50/EC90, intracellular HBV RI): 4267
- EC50 ([3]; Hepatitis B virus, read-out: Intracellular HBV RI EC50): 0.16 ± 0.03 µM
- EC50 ([3]; Hepatitis B virus, 2.2.15 cells, Table 3 experiment, read-out: HBV R.I. EC50): 0.16 ± 0.02 µM
- EC90 ([3]; Hepatitis B virus, 2.2.15 cells, Table 3 experiment, read-out: HBV R.I. EC90): 0.56 ± 0.07 µM
- EC50 ([3]; Hepatitis B virus, 2.2.15 cells, Table 3 experiment, read-out: Virion production EC50): 0.05 ± 0.01 µM
- EC90 ([3]; Hepatitis B virus, 2.2.15 cells, Table 3 experiment, read-out: Virion production EC90): 0.15 ± 0.02 µM
- EC50 ([3]; Hepatitis B virus, 2.2.15 cells, nine daily doses, read-out: Extracellular virion DNA EC50): 0.05 ± 0.01 µM
- EC90 ([3]; Hepatitis B virus, 2.2.15 cells, nine daily doses, read-out: Extracellular virion DNA EC90): 0.15 ± 0.02 µM
- EC90 ([3]; Hepatitis B virus, 2.2.15 cells, nine daily doses, read-out: Intracellular HBV RI EC90): 0.55 ± 0.06 µM
- EC90 ([4]; Hepatitis B virus, Huh-7): 0.9 ± 0.2 µM
- EC50 ([4]; Hepatitis B virus, Huh-7): 0.2 ± 0.1 µM
- EC50 ([5]; Hepatitis B virus, Huh-7): > 100 µM
- EC90 ([5]; Hepatitis B virus, Huh-7): > 100 µM
- EC50 ([6]; Hepatitis B virus, Huh-7): > 100 µM
- EC90 ([6]; Hepatitis B virus, Huh-7): > 100 µM
- EC50 ([7]; Hepatitis B virus, Huh-7): 0.3 ± 0.1 µM
- EC90 ([7]; Hepatitis B virus, Huh-7): 1.2 ± 0.2 µM
- EC50 ([8]; Hepatitis B virus, Huh-7): 16 ± 2 µM
- EC90 ([8]; Hepatitis B virus, Huh-7): 46 ± 5.6 µM
- EC50 ([9]; Hepatitis B virus, Huh-7): > 100 µM
- EC90 ([9]; Hepatitis B virus, Huh-7): > 100 µM
- CC50 at 9 days [10]: 2350 ± 88 µM

SMILES: O=C(Nc1ncc(Cl)s1)c1ccccc1O [RM4848]
- EC50 [3, 15]: 0.37 ± 0.07 µM
- EC90 [3, 16]: 1.7 ± 0.2 µM
- CC50 [11]: 15 ± 0.1 µM
- EC50 [12]: > 20 µM
- EC90 [12]: > 20 µM
- CC50 [13]: > 100 µM

SMILES: Cc1ccc(O)c(C(=O)Nc2ncc(Cl)s2)c1 [RM4850]
- EC50 [3, 15]: 0.33 ± 0.07 µM
- EC90 [3, 16]: 0.83 ± 0.1 µM
- EC50 [3, 17]: 0.9 ± 0.1 µM
- differences in potency against drug-resistant viruses relative to wild-type HBV [14]: No significant differences
- EC90 [4]: 2 ± 0.3 µM
- EC50 [4]: 0.73 ± 0.08 µM
- CC50 [11]: 2.3 ± 0.2 µM
- EC50 ([5]; M204I, read-out: EC50): 1 ± 0.2 µM
- EC90 ([5]; M204I, read-out: EC90): 2.4 ± 0.3 µM
- EC50 ([6]; M204V, read-out: EC50): 0.8 ± 0.1 µM
- EC90 ([6]; M204V, read-out: EC90): 2.1 ± 0.3 µM
- EC50 ([7]; N236T, read-out: EC50): 0.67 ± 0.08 µM
- EC90 ([7]; N236T, read-out: EC90): 2.2 ± 0.2 µM
- EC50 ([8]; L180M, read-out: EC50): 0.83 ± 0.09 µM
- EC90 ([8]; L180M, read-out: EC90): 2.2 ± 0.2 µM
- EC50 ([9]; L180M/M204V, read-out: EC50): 0.87 ± 0.11 µM
- EC90 ([9]; L180M/M204V, read-out: EC90): 2.1 ± 0.3 µM
- EC50 [12]: > 20 µM
- EC90 [12]: > 20 µM
- CC50 [13]: > 100 µM

SMILES: Cc1cccc(C(=O)Nc2ncc(Cl)s2)c1O [RM4851]
- EC50 [3, 15]: > 10 µM
- EC90 [3, 16]: > 10 µM
- EC50 [3, 17]: > 10 µM
- EC90 [3, 18]: > 10 µM
- CC50 [11]: 5.6 ± 0.3 µM
- EC50 [12]: > 20 µM
- EC90 [12]: > 20 µM
- CC50 [13]: > 100 µM

SMILES: Cc1ccc(C(=O)Nc2ncc(Cl)s2)c(O)c1 [RM4852]
- EC50 [3, 15]: 1 ± 0.1 µM
- EC90 [3, 16]: 3.3 ± 0.3 µM
- EC50 [3, 17]: 2.7 ± 0.3 µM
- EC90 [3, 18]: 6.3 ± 0.7 µM
- CC50 [11]: 6.7 ± 0.4 µM
- EC50 [12]: > 20 µM
- EC90 [12]: > 20 µM
- CC50 [13]: > 100 µM
